Measurements as given in patent US11535607B2, “Isoindolines as HDAC inhibitors” (Valo Health, Inc., priority 2018, dated 2022).
pIC50: −log10 of the molar value. In brackets after ≈: the same amount, converted by molar mass. Like-named read-outs stand apart in the source and are kept apart here.

Key:
[1] = In vitro intrinsic clearance after incubation with mouse liver microsomes; assay type: in vitro ADME; details: for microsomal stability, in words: comparison
[2] = target: T1, full-length human HDAC11 (Homo sapiens (Human), UniProt Q96DB2); experiment: HDAC11 deacetylase electrophoretic mobility shift assay (Nanosyn); assay type: biochemical; details: for HDAC11 potency, in words: comparison with parent or lead compound; for pIC50: mobility shift assay
Procedure: The measurement of HD AC 11 deacetylase activity was performed using an electrophoretic mobility shift assay by Nanosyn (Santa Clara, Calif.). Full length human recombinant HD AC 11 protein was expressed in baculoviral system and purified by affinity chromatography. The enzymatic reactions were assembled in 384 well plates in a total volume of 25 μL in a reaction buffer composing: 100 mM HEPES, pH 7.5, 25 mM KCl, 0.1% bovine serum albumin, 0.01% Triton X-100, 1% DMSO (from compounds), 2 μM of the fluorescently labeled peptide substrate and enzyme. The enzyme was added at a final concentration of 10 nM. The peptide substrate FAM-RHKK(tri-fluor-Ac)—NH2 was used. The compounds were tested at 12 concentrations spaced by 3× dilution intervals. Negative control samples (0%-inhibition in the absence of inhibitor) and positive control samples (100%-inhibition) were assembled in replicates of four in each assay plate. The reactions were incubated at 25° C. and quenched by the addition of 45 μL of termination buffer (100 mM HEPES, pH 7.5, 0.01% Triton X-100, 0.05% SDS).
The terminated assay plates were analyzed on LabChip® 3000 microfluidic electrophoresis instrument (Perkin Elmer/Caliper Life Sciences). The fluorescence intensity of the electrophoretically separated de-acetylated product and substrate peptide was measured. Activity in each sample was determined as the product to sum ratio (PSR): P/(S+P), where P is the peak height of the product peptide and S is the peak height of the substrate peptide. Percent inhibition (Pinh) is determined using the following equation: Pinh=(PSR0%−PSRinh)/(PSR0%−PSR100%)*100, where PSRinh, is the product sum ratio in the presence of inhibitor, PSR0% is the average product sum ration in the absence of inhibitor and PSR100% is the average product sum ratio in 100%-inhibition control samples. The IC50 values of inhibitors were determined by fitting the percent inhibition curves with 4 parameter dose-response model using XLfit 4 software.

[3] = target: HDAC11 (Homo sapiens (Human), UniProt Q96DB2); experiment: Lipophilic efficiency (pIC50 HDAC11 - clogD7.4)
[4] = target: T1, full-length human HDAC11; experiment: Probe binding HDAC11 time resolved fluorescence (TRF) assay; details: Table 2, read-out: HDAC11 IC50 Range
Procedure: The probe binding HDAC11 assay was performed using a time resolved fluorescence (TRF) assay format. Recombinant N-terminal GST tag full-length human HD AC 11 was expressed and purified from baculovirus in Sf9 insect cells (SignalChem, #H93-30G-1000). […] 4 μL of 2× probe and 2× anti-GST Terbium (Cisbio, #61GSTXLB) was added to assay plates followed by 4 μL of 2×HDAC11.
Data from HD AC 11 Assays were reported as percent inhibition (inh) compared with control wells based on the following equation: % inh=1−((FLU−AveLow)/(AveHigh−AveLow)) where FLU=measured time resolved fluorescence. AveLow=average time resolved fluorescence of no enzyme control (n=32). AveHigh=average time resolved fluorescence of DMSO control (n=32). IC50 values were determined by curve fitting of the standard 4 parameter logistic fitting algorithm included in the Activity Base software package: IDBS XE Designer Model205. Data is fitted using the Levenburg Marquardt algorithm.

[5] = target: HDAC6 (Homo sapiens (Human), UniProt Q9UBN7); experiment: HDAC6 electrophoretic mobility shift assay; assay type: biochemical; details: for pIC50: mobility shift assay
[6] = Kinetic solubility at pH 7.4; assay type: physicochemical; details: aqueous buffer, kinetic from dmso stock
[7] = target: HDAC11 fused to Nanoluc luciferase (Homo sapiens (Human), UniProt Q96DB2); experiment: BRET target engagement cell assay
[8] = pIC50 HDAC11 - clogD7.4, Table 5
[9] = pIC50 HDAC11 - clogD7.4, Table 6
[10] = read-out: HDAC11 BRET IC50, BRET cell assay, Table 6
[11] = Table 3, mean of at least two runs, read-out: HDAC 6 IC50
[12] = Table 3, mean of at least two runs, read-out: HDAC 11 IC50
[13] = pIC50 HDAC11 - clogD7.4, Table 4

Chain of HDAC6 (Q9UBN7 whole entry, species assumed): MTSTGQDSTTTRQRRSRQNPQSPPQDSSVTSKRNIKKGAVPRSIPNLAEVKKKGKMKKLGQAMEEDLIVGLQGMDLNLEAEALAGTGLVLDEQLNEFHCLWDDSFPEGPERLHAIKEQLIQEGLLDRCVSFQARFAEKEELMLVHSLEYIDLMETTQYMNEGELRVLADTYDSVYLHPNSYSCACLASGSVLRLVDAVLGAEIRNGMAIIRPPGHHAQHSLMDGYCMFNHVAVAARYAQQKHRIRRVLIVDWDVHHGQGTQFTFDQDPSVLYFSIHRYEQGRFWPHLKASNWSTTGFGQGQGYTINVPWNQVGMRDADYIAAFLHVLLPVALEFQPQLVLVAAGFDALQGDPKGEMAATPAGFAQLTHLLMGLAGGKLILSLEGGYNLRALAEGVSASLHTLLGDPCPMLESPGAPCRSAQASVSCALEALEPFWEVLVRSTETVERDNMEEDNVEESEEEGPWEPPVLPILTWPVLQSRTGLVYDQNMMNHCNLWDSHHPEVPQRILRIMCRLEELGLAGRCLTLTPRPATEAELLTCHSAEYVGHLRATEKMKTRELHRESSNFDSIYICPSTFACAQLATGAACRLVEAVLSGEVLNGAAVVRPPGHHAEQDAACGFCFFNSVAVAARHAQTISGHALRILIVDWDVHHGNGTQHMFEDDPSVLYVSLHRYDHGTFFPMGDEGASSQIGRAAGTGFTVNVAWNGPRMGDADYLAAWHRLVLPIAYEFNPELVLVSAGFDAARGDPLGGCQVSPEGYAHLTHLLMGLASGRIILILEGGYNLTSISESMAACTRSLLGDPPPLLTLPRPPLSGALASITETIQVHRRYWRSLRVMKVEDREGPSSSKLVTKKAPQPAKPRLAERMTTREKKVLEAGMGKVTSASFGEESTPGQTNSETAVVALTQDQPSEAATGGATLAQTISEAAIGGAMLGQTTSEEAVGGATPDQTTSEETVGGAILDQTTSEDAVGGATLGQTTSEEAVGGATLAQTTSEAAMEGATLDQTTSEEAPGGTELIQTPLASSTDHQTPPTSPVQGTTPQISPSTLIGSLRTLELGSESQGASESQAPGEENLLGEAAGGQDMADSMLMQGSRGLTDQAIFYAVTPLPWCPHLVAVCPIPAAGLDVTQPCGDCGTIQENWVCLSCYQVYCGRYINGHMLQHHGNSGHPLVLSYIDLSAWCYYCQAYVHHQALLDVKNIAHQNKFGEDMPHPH
Chain of HDAC11 fused to Nanoluc luciferase (Q96DB2 whole entry, the tested form may be a part): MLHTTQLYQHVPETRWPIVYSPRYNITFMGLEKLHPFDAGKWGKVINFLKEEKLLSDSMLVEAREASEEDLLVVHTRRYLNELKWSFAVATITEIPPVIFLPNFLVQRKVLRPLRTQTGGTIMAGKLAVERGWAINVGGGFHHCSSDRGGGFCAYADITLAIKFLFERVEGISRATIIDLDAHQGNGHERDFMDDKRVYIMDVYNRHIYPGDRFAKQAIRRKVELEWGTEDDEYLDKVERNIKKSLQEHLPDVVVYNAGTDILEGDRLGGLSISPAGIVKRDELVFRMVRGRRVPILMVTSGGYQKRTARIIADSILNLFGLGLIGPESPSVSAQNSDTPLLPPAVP
T1 sequence (Q96DB2 whole entry): as the sequence (Q96DB2 whole entry, the tested form may be a part) above
Chain of HDAC11 (Q96DB2 whole entry): as the sequence (Q96DB2 whole entry, the tested form may be a part) above

Row | SMILES | microsomal CLint ([1]; Table 5) [µL/min/mg] | microsomal stability, in words [1] | HDAC11 potency, in words [2] | pIC50 ([2]; Table 5, read-out: HDAC11 IC50) | LipE [3, 8] | pIC50 [4] | microsomal CLint ([1]; Table 6) [µL/min/mg] | pIC50 ([2]; Table 6, read-out: HDAC11 IC50) | solubility [6] [µM] | LipE [3, 9] | further results
1 | Cc1nc(N2Cc3cccc(C(=O)NO)c3C2)[nH]c1C.Cl [Compound 1-2, 2-(4,5-dimethyl-1H-imidazol-2-yl)-N-hydroxyisoindoline-4-carboxamide hydrochloride] | 51 to 100 | loss of potency and microsomal stability | loss of potency | < 6.00 | ++ (indicates 5.5<LipE≤6.5) | < 6.00 |  |  |  |  | 
2 | Cl.O=C(NO)c1cccc2c1CN(c1nc3c([nH]1)CCCC3)C2 [Compound 1-4, N-hydroxy-2-(4,5,6,7-tetrahydro-1H-benzo[d]imidazol-2-yl)isoindoline-4-carboxamide hydrochloride] | > 100 | loss of potency and microsomal stability | loss of potency | < 6.00 | ++ (indicates 5.5<LipE≤6.5) | < 6.00 |  |  |  |  | 
3 | O=C(NO)c1cccc2c1CN(c1nc3ccccc3[nH]1)C2 [Compound 1-6, 2-(1H-benzo[d]imidazol-2-yl)-N-hydroxyisoindoline-4-carboxamide] |  | significant microsomal stability |  |  |  |  |  |  |  |  | microsomal CLint ([1]; Table 4, read-out: m-CL-int): < 50 µL/min/mg; m-CLint ([1]; Table 5): +++ (indicates a m-CLint below 50 μL/min/mg); pIC50 ([5]; Table 4, read-out: HDAC6 IC50): < 6.00
4 | Cl.O=C(NO)c1cccc2c1CN(c1ccc3ccccc3n1)C2 [Compound 7-2, N-hydroxy-2-(quinolin-2-yl)isoindoline-4-carboxamide hydrochloride] | 51 to 100 | significant loss of microsomal stability | improved potency | > 6.30 | + (indicates LipE≤5.5) | > 6.30 |  |  |  |  | 
5 | O=C(NO)c1cccc2c1CN(c1nc3ccccc3s1)C2 [Compound 7-4, 2-(benzo[d]thiazol-2-yl)-N-hydroxyisoindoline-4-carboxamide] | > 100 | significant loss of microsomal stability | improved potency | > 6.30 | + (indicates LipE≤5.5) | > 6.30 |  |  |  |  | 
6 | O=C(NO)c1cccc2c1CN(c1nc3ccc(C(F)(F)F)cc3[nH]1)C2 [Compound 12-1, N-hydroxy-2-(6-(trifluoromethyl)-1H-benzo[d]imidazol-2-yl)isoindoline-4-carboxamide] | > 100 | loss of microsomal stability | significant increase in both potency and LipE | > 6.30 | ++ (indicates 5.5<LipE≤6.5) | > 6.30 |  |  |  |  | 
7 | O=C(NO)c1cccc2c1CN(c1nc3ccccc3o1)C2 [Compound 15-1, 2-(benzo[d]oxazol-2-yl)-N-hydroxyisoindoline-4-carboxamide] | > 100 | significant loss of microsomal stability | improved potency | > 6.30 | +++ (indicates a LipE>6.5) | > 6.30 |  |  |  |  | 
8 | CC1(C)c2cccc(C(=O)NO)c2CN1c1nc2ccc(C(F)(F)F)cc2[nH]1 [Compound 17-1, N-hydroxy-1,1-dimethyl-2-(6-(trifluoromethyl)-1H-benzo[d]imidazol-2-yl)isoindoline-4-carboxamide] |  | significant increase in stability | retained the potency |  |  | > 6.30 | < 50 | > 6.30 | 30 to 55 (≈ 11.7 to 21.5 µg/mL) | ++ (indicates 5.5<LipE≤6.5) | 
9 | CC1(C)c2cccc(C(=O)NO)c2CN1c1nc2cc(C(F)(F)F)ccc2o1 [Compound 18-1, N-hydroxy-1,1-dimethyl-2-[5-(trifluoromethyl)-1,3-benzoxazol-2-yl]-2,3-dihydro-1H-isoindole-4-carboxamide] |  |  |  |  |  | > 6.30 | < 50 | > 6.30 | ≤ 30 | ++ (indicates 5.5<LipE≤6.5) | 
10 | CC1(C)c2cccc(C(=O)NO)c2CN1c1nc2ncccc2o1 [Compound 18-2, N-hydroxy-1,1-dimethyl-2-(oxazolo[4,5-b]pyridin-2-yl)isoindoline-4-carboxamide] |  |  |  |  |  | > 6.30 | < 50 | > 6.30 | > 55 | +++ (indicates a LipE>6.5) | pIC50 [7, 10]: > 6.30
11 | CC1(C)c2cccc(C(=O)NO)c2CN1c1ccc(C(F)(F)F)cn1 [Compound 22-2, N-hydroxy-1,1-dimethyl-2-(5-(trifluoromethyl)pyridin-2-yl)isoindoline-4-carboxamide] |  |  |  |  |  | > 6.30 | < 50 | > 6.30 | ≤ 30 | ++ (indicates 5.5<LipE≤6.5) | pIC50 [7, 10]: > 6.30
12 | CC1(C)c2cccc(C(=O)NO)c2CN1c1ccc(C(F)(F)F)nc1 [Compound 22-3, N-hydroxy-1,1-dimethyl-2-(6-(trifluoromethyl)pyridin-3-yl)isoindoline-4-carboxamide] |  |  |  |  |  | > 6.30 | < 50 | > 6.30 | 30 to 55 (≈ 10.5 to 19.3 µg/mL) | ++ (indicates 5.5<LipE≤6.5) | pIC50 [7]: > 7.70; pIC50 [7, 10]: > 6.30
13 | CC1(C)c2cccc(C(=O)NO)c2CN1c1ncc(C(F)(F)F)cn1 [Compound 22-6, N-hydroxy-1,1-dimethyl-2-(5-(trifluoromethyl)pyrimidin-2-yl)isoindoline-4-carboxamide] |  |  |  |  |  | > 6.30 | < 50 | > 6.30 | 30 to 55 (≈ 10.6 to 19.4 µg/mL) | ++ (indicates 5.5<LipE≤6.5) | pIC50 [7, 10]: > 6.30
14 | O=C(NO)c1cccc2c1CN(c1ccc(C(F)(F)F)cn1)C2 [Compound 45-1, N-hydroxy-2-(5-(trifluoromethyl)pyridin-2-yl)isoindoline-4-carboxamide] | 51 to 100 | significant loss of microsomal stability | improved potency | > 6.30 | ++ (indicates 5.5<LipE≤6.5) | > 6.30 |  |  |  |  | 
15 | O=C(NO)c1cccc2c1CCN(c1nc3ccccc3[nH]1)C2 [Compound 50-2] |  |  | only modest HDAC11 activity |  |  |  |  |  |  |  | microsomal CLint ([1]; Table 4, read-out: m-CL-int): < 50 µL/min/mg; pIC50 [5, 11]: < 5.70; pIC50 ([5]; Table 4, read-out: HDAC6 IC50): < 6.00; HDAC6 potency, in words ([5]; text comparison with lead 50-4): no significant HDAC6 potency; pIC50 [2, 12]: 5.70 to 6.29; pIC50 ([2]; Table 4, read-out: HDAC11 IC50): < 6.00; LipE [3, 13]: + (indicates LipE≤5.5)
16 | O=C(NO)c1cccc2c1CCN(c1nc3ccccc3[nH]1)CC2 [Compound 50-3] |  |  |  |  |  |  |  |  |  |  | microsomal CLint ([1]; Table 4, read-out: m-CL-int): > 100 µL/min/mg; pIC50 ([5]; Table 4, read-out: HDAC6 IC50): < 6.00; pIC50 ([2]; Table 4, read-out: HDAC11 IC50): > 6.30; increase in potency against HDAC11 ([2]; relative to the tetrahydroisoquinoline core): > 10 fold; LipE [3, 13]: + (indicates LipE≤5.5)
17 | O=C(NO)c1ccc2c(c1)CN(c1nc3ccccc3[nH]1)CC2 [Compound 50-4] |  |  |  |  |  |  |  |  |  |  | pIC50 [5, 11]: > 6.30; pIC50 [2, 12]: < 5.70
18 | O=C(NO)c1ccc2c(c1)CCN(c1nc3ccccc3[nH]1)C2 [Compound 50-5] |  |  | loss of HD AC 11 potency |  |  |  |  |  |  |  | pIC50 [5, 11]: > 6.30; pIC50 [2, 12]: < 5.70
19 | O=C(NO)c1cccc2c1CN(c1nc3ccccc3[nH]1)CC2 [Compound 50-6] |  |  |  |  |  |  |  |  |  |  | pIC50 [5, 11]: > 6.30; loss in potency vs. HDAC6 ([5]; relative to initial lead 50-4): 20 fold; pIC50 [2, 12]: < 5.70; loss in activity vs. HDAC11 ([2]; relative to initial lead 50-4): 2 fold
